Values of other authors in US20250213580A1, “Improved Thiopurine Formulation and Treatment Methods” (Douglas Pharmaceuticals Ltd, priority 2022, published 2025).
Like-named read-outs stand apart in the source and are kept apart here.

System: spontaneous colitis in a mouse model
Details: intra-rectal administration

Row | SMILES | effect on colitis (within 14 days, distal colon) | effect on colitis (mid-colon or proximal colon)
1 | S=c1nc[nH]c2nc[nH]c12 [Formulation 6-MP, 3,7-dihydropurine-6-thione] | did not provide any significant improvement in colitis | –
2 | Nc1nc(=S)c2[nH]cnc2[nH]1 [Formulation 6-TG, 2-amino-6,7-dihydro-3H-purine-6-thione] | ameliorated spontaneous colitis | no improvement in colitis
